According to patent publication US10221173B2, “Chemical compounds” (AstraZeneca AB, priority 2017, dated 2019):
pIC50: −log10 of the molar value. Converted amounts (≈) assume the structure as drawn.

Assays:
[1] = target: T1, Estrogen Receptor (ERα) in MCF-7 cells (Homo sapiens (Human), UniProt P03372); experiment: Western blotting assay, ER down-regulation in MCF-7; format: cell-based; settings: MCF-7, 100 nM compound, 48 h, vs 100 nM fulvestrant
[2] = target: recombinant human Estrogen Receptor alpha ligand binding domain (ER alpha-LBD (GST)) (Homo sapiens (Human), UniProt P03372); experiment: ERα binding assay (LanthaScreen TR-FRET competition)
[3] = target: T1, Estrogen Receptor (ERα) in MCF-7 cells; experiment: MCF-7 ER down-regulation assay (immuno-fluorescence); format: cell-based; settings: for % downregulation (in brackets): maximum downregulation
hERG potassium channel = hERG potassium channel (Homo sapiens (Human), UniProt Q12809)
Description: The assay was conducted as follows with all reagents used at room temperature unless otherwise stated.
All compounds were acoustically dispensed in quadruplicate using a Labcyte Echo.
Calculation of results is performed using APC package within Genedata. For the routine normalization of well data with Neutral and Inhibitor control well groups as reference, GeneData Assay Analyzer uses the following equation to normalize the signal values to the desired signal range:
[formula] x is the measured raw signal value of a well is the median of the measured signal values for the Central Reference (Neutral) wells on a plate is the median of the measured signal values for the Scale Reference (Inhibitor) wells on a plate CR is the desired median normalized value for the Central Reference (Neutral) SR is the desired median normalized value for the Scale Reference (Inhibitor)

[4] = Human plasma protein binding (equilibrium dialysis); format: in vitro ADME
[5] = Thermodynamic solubility (shake-flask); format: physicochemical; settings: phosphate buffer pH 7.4, 24 hours
[6] = Log D (shake flask, 1-octanol/aqueous buffer); format: physicochemical; settings: for logD: 1-octanol/aqueous buffer, pH 7.4, pH 7.4
[7] = target: estrogen receptor (ERα) in CAMA-1 cells (Homo sapiens (Human), UniProt P03372); experiment: Western blotting assay, ER down-regulation in CAMA-1; format: cell-based; settings: CAMA-1, 100 nM compound, 48 h, vs 100 nM fulvestrant
[8] = aqueous phosphate buffer, 25 °C, pH 7.4, aqueous buffer, thermodynamic from solid

Chain of recombinant human Estrogen Receptor alpha ligand binding domain (ER alpha-LBD (GST)) (P03372 307-554): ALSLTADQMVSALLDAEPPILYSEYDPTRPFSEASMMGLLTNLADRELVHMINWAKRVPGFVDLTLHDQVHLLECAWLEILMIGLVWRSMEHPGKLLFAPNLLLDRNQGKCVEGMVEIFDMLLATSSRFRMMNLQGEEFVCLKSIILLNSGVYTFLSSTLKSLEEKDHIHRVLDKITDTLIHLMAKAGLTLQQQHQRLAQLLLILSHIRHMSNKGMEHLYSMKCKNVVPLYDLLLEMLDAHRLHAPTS
T1 sequence (P03372 whole entry, the tested form may be a part): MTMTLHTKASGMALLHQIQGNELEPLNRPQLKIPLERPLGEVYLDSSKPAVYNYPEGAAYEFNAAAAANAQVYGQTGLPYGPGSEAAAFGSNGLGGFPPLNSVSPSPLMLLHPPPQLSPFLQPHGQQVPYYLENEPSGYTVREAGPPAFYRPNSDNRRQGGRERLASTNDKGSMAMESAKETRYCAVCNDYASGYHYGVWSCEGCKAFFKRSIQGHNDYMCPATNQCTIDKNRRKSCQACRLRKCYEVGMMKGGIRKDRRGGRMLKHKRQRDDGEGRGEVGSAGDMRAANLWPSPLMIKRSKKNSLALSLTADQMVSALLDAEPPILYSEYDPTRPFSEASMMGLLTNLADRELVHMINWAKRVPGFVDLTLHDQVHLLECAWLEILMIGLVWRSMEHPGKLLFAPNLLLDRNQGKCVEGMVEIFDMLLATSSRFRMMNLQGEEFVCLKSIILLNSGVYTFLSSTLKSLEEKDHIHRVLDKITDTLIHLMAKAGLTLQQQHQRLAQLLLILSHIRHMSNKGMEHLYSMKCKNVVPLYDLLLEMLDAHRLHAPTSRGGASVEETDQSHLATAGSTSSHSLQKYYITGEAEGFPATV
Chain of hERG potassium channel (Q12809 whole entry): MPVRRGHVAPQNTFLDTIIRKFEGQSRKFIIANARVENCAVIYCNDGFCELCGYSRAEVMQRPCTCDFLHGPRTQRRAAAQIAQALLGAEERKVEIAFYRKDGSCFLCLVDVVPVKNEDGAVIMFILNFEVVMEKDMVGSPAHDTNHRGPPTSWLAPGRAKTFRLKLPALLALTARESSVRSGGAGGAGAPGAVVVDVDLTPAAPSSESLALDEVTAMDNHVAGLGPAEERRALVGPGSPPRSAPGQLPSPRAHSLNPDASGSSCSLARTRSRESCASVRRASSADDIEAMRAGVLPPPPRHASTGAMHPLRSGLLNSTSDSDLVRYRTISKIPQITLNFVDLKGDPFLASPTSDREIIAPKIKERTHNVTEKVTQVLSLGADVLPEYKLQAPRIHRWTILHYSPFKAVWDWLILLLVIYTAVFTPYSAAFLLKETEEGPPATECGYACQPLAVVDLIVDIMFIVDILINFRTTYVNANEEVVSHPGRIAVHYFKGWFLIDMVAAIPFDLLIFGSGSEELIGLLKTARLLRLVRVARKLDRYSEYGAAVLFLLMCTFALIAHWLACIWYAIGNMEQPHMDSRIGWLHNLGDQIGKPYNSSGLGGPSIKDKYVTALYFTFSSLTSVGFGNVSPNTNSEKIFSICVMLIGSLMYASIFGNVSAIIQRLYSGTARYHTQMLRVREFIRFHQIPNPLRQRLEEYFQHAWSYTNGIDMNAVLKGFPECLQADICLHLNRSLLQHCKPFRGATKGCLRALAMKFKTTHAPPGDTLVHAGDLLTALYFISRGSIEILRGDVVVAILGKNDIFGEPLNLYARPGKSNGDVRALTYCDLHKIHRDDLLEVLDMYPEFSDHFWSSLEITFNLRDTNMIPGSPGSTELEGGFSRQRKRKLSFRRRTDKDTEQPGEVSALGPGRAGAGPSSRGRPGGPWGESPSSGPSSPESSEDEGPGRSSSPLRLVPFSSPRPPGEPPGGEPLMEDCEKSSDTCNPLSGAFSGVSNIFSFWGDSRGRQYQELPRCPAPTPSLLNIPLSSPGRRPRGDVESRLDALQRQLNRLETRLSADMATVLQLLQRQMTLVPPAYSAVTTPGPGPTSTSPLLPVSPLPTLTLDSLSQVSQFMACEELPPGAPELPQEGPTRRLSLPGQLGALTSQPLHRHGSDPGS
Chain of estrogen receptor (ERα) in CAMA-1 cells (P03372 whole entry): as the sequence (P03372 whole entry, the tested form may be a part) above

Structure (SMILES) | MCF7 Western % ER deg vs Fv [1] [%] | pIC50 [2] | pIC50 [3] | pIC50 (hERG potassium channel) | Human plasma protein binding (% free) [4] [% free] | solubility at 24 h [5, 8] [µM] | logD [6] | solubility at 24 h ([5]; 25° C.) [µM] | LogD pH 7.4 ([6]; pH 7.4) | % downregulation (in brackets) [3] | CAMA1 Western % ER deg vs Fv [7] [%]
Cc1c(OCCN(C)CCCF)ncc(F)c1[C@@H]1c2[nH]c3ccccc3c2C[C@@H](C)N1C[C@@H](C)C(=O)O [Example 152, (R)-3-((1R,3R)-1-(5-fluoro-2-(2-((3-fluoropropyl)(methyl)amino)ethoxy)-3-methylpyridin-4-yl)-3-methyl-1,3,4,9-tetrahydro-2H-pyrido[3,4-b]indol-2-yl)-2-methylpropanoic acid] | 93 | – | – | – | – | – | – | – | – | – | –
Cc1c(OCCNCCCF)ccc(F)c1[C@@H]1c2[nH]c3ccccc3c2C[C@@H](C(F)(F)F)N1C[C@H](C)C(=O)O [Example 140, (S)-3-((1R,3S)-1-(6-fluoro-3-(2-((3-fluoropropyl)amino)ethoxy)-2-methylphenyl)-3-(trifluoromethyl)-1,3,4,9-tetrahydro-2H-pyrido[3,4-b]indol-2-yl)-2-methylpropanoic acid] | 84 | 8.85 | 9.00 | – | – | – | – | – | – | – | –
Cc1c(OCCN(C)CCCF)ncc(F)c1[C@@H]1c2[nH]c3ccccc3c2C[C@@H](C)N1C[C@H](C)C(=O)O [Example 145, (S)-3-((1R,3R)-1-(5-fluoro-2-(2-((3-fluoropropyl)(methyl)amino)ethoxy)-3-methylpyridin-4-yl)-3-methyl-1,3,4,9-tetrahydro-2H-pyrido[3,4-b]indol-2-yl)-2-methylpropanoic acid] | 94 | – | – | – | – | – | – | – | – | – | –
C[C@@H](CN1[C@H](c2c(F)ccc(OCCNCCCF)c2Cl)c2[nH]c3ccccc3c2C[C@H]1C(F)(F)F)C(=O)O [Example 141] | 79 | 8.55 | 9.01 | – | – | – | – | – | – | – | –
COc1ncc(NCCNCCCF)cc1[C@@H]1c2[nH]c3ccccc3c2C[C@@H](C)N1CC(F)(F)F [Example 41, N1-(3-fluoropropyl)-N2-(6-methoxy-5-((1R,3R)-3-methyl-2-(2,2,2-trifluoroethyl)-2,3,4,9-tetrahydro-1H-pyrido[3,4-b]indol-1-yl)pyridin-3-yl)ethane-1,2-diamine] | – | 7.92 | 8.22 | 5.31 | 1.8 | 242 (≈ 119 µg/mL) | 2.9 | – | – | – | –
Cc1c(OCCN(C)CCCF)ncc(F)c1[C@@H]1c2[nH]c3ccccc3c2C[C@@H](C)N1C(C)CC(=O)O (single isomer, unassigned) [Example 159] | – | 9.05 | 9.74 | < 4.40 | 13 | – | – | >1000 | 1.7 | – | –
C[C@@H]1Cc2c([nH]c3ccccc23)[C@@H](c2cccc(OCCNCCCF)n2)N1CC(F)(F)F [Example 34, 3-fluoro-N-(2-((6-((1S,3R)-3-methyl-2-(2,2,2-trifluoroethyl)-2,3,4,9-tetrahydro-1H-pyrido[3,4-b]indol-1-yl)pyridin-2-yl)oxy)ethyl)propan-1-amine] | – | 6.72 | – | 5.47 | 2.2 | 151 (≈ 70.1 µg/mL) | 3.7 | – | – | — (41%) | –
COc1ccc(O[C@H](C)CNCCCF)cc1[C@@H]1c2[nH]c3ccccc3c2C[C@@H](C)N1CC(F)(F)CO [Example 47, 2,2-difluoro-3-((1R,3R)-1-(5-(((R)-1-((3-fluoropropyl)amino)propan-2-yl)oxy)-2-methoxyphenyl)-3-methyl-1,3,4,9-tetrahydro-2H-pyrido[3,4-b]indol-2-yl)propan-1-ol] | – | 8.60 | 7.96 | 5.49 | 6.1 | 488 (≈ 254 µg/mL) | 2.7 | – | – | 81% | –
Cc1ccc(OCCNCCCF)nc1[C@@H]1c2[nH]c3ccccc3c2C[C@@H](C)N1CC(F)(F)F [Example 105, 3-fluoro-N-(2-((5-methyl-6-((1S,3R)-3-methyl-2-(2,2,2-trifluoroethyl)-2,3,4,9-tetrahydro-1H-pyrido[3,4-b]indol-1-yl)pyridin-2-yl)oxy)ethyl)propan-1-amine] | – | 7.38 | 7.41 | 5.46 | 1 | 136 (≈ 65.1 µg/mL) | 3.4 | – | – | – | –
COc1c(F)cc(OCCNCCCF)cc1[C@@H]1c2[nH]c3ccccc3c2C[C@@H](C)N1CC(F)(F)F [Example 27, 3-fluoro-N-(2-(3-fluoro-4-methoxy-5-((1R,3R)-3-methyl-2-(2,2,2-trifluoroethyl)-2,3,4,9-tetrahydro-1H-pyrido[3,4-b]indol-1-yl)phenoxy)ethyl)propan-1-amine] | – | 8.57 | 8.80 | 5.32 | 0.42 | 6 (≈ 3.07 µg/mL) | 4.2 | – | – | – | –
Cc1c(OCCNCCCF)cccc1[C@@H]1c2[nH]c3ccccc3c2C[C@@H](C)N1CC(F)(F)F [Example 20, 3-fluoro-N-(2-(2-methyl-3-((1R,3R)-3-methyl-2-(2,2,2-trifluoroethyl)-2,3,4,9-tetrahydro-1H-pyrido[3,4-b]indol-1-yl)phenoxy)ethyl)propan-1-amine] | – | – | – | – | – | 11 (≈ 5.25 µg/mL) | – | – | – | – | 91
C[C@@H]1Cc2c([nH]c3ccc(F)cc23)[C@@H](c2c(F)cnc(OCCN(C)CCCF)c2F)N1CC(F)(F)CO [Example 67, 3-((1R,3R)-1-(3,5-difluoro-2-(2-((3-fluoropropyl)(methyl)amino)ethoxy)pyridin-4-yl)-6-fluoro-3-methyl-1,3,4,9-tetrahydro-2H-pyrido[3,4-b]indol-2-yl)-2,2-difluoropropan-1-ol] | – | 9.15 | 10.00 | 5.24 | 1.6 | 80.6 (≈ 43.9 µg/mL) | 4 | – | – | – | –
Cc1c(OCCNCCCF)ccc(F)c1[C@@H]1c2[nH]c3ccc(F)cc3c2C[C@@H](C)N1C[C@H](C)C(=O)O [Example 57, (S)-3-((1R,3R)-6-fluoro-1-(6-fluoro-3-(2-((3-fluoropropyl)amino)ethoxy)-2-methylphenyl)-3-methyl-1,3,4,9-tetrahydro-2H-pyrido[3,4-b]indol-2-yl)-2-methylpropanoic acid] | 93 | 8.59 | 9.47 | – | – | – | – | – | – | – | –
Cc1ccc2[nH]c3c(c2c1)C[C@@H](C)N(CC(F)(F)CO)[C@@H]3c1c(F)cnc(OCCNCCCF)c1F [Example 66, 3-((1R,3R)-1-(3,5-difluoro-2-(2-((3-fluoropropyl)amino)ethoxy)pyridin-4-yl)-3,6-dimethyl-1,3,4,9-tetrahydro-2H-pyrido[3,4-b]indol-2-yl)-2,2-difluoropropan-1-ol] | – | 9.15 | 9.47 | 5.27 | 1.3 | 441 (≈ 232 µg/mL) | 3 | – | – | – | –
Cc1c(NCCNCCCF)ccnc1[C@@H]1c2[nH]c3ccccc3c2C[C@@H](C)N1CC(F)(F)F [Example 95, N1-(3-fluoropropyl)-N2-(3-methyl-2-((1S,3R)-3-methyl-2-(2,2,2-trifluoroethyl)-2,3,4,9-tetrahydro-1H-pyrido[3,4-b]indol-1-yl)pyridin-4-yl)ethane-1,2-diamine] | – | 8.25 | 8.48 | 5.14 | 4.6 | 869 (≈ 415 µg/mL) | 2.5 | – | – | – | –
C[C@@H]1Cc2c([nH]c3ccccc23)[C@@H](c2c(Cl)ccc(OCCNCCCF)c2Cl)N1C[C@H](C)C(=O)O [Example 128, (S)-3-((1R,3R)-1-(2,6-dichloro-3-(2-((3-fluoropropyl)amino)ethoxy)phenyl)-3-methyl-1,3,4,9-tetrahydro-2H-pyrido[3,4-b]indol-2-yl)-2-methylpropanoic acid] | – | 8.47 | 8.96 | < 4.40 | 15 | 973 (≈ 522 µg/mL) | 1 | – | – | – | –
C[C@@H]1Cc2c([nH]c3ccccc23)[C@@H](c2cccc(OCCNCCCF)c2Cl)N1CC(F)(F)F [Example 25, N-(2-(2-chloro-3-((1R,3R)-3-methyl-2-(2,2,2-trifluoroethyl)-2,3,4,9-tetrahydro-1H-pyrido[3,4-b]indol-1-yl)phenoxy)ethyl)-3-fluoropropan-1-amine] | – | 9.06 | 9.60 | 5.28 | 0.080 | 19 (≈ 9.46 µg/mL) | 4.3 | – | – | – | –
C[C@@H]1Cc2c([nH]c3ccccc23)[C@@H](c2cccc(OCCNCCCF)c2C(F)F)N1CC(F)(F)CO [Example 68, 3-((1R,3R)-1-(2-(difluoromethyl)-3-(2-((3-fluoropropyl)amino)ethoxy)phenyl)-3-methyl-1,3,4,9-tetrahydro-2H-pyrido[3,4-b]indol-2-yl)-2,2-difluoropropan-1-ol] | – | 9.16 | 10.02 | 5.70 | 1.2 | 56.6 (≈ 29.7 µg/mL) | 3.2 | – | – | – | –
COc1cc(F)c(NCCNCCCF)cc1[C@@H]1c2[nH]c3ccccc3c2C[C@@H](C)N1CC(F)(F)F [Example 91, N1-(2-fluoro-4-methoxy-5-((1R,3R)-3-methyl-2-(2,2,2-trifluoroethyl)-2,3,4,9-tetrahydro-1H-pyrido[3,4-b]indol-1-yl)phenyl)-N2-(3-fluoropropyl)ethane-1,2-diamine] | – | 8.03 | 7.82 | 5.59 | 0.93 | 280 (≈ 143 µg/mL) | 2.9 | – | – | – | –
